The values that follow come from US7678796B2, “MGluR5 modulators I” (AstraZeneca AB, priority 2006, dated 2010).

One data set deals with T1, human mGluR5d (Homo sapiens, UniProt P41594).
T1 construct: expressed in transfected cells
Description: FLIPR assay, functional assessment of mGluR5 antagonism (intracellular calcium mobilization). The class given is cell-based. The conditions noted are these: cells expressing human mGluR5d; read-out: FLIPR hmGluR5d. The source says: Biological Evaluation Functional Assessment of mGluR5 Antagonism in Cell Lines Expressing mGluR5D
The properties of the compounds of the invention can be analyzed using standard assays for pharmacological activity. Examples of glutamate receptor assays are well known in the art as described in for example Aramori et al., Neuron 8:757 (1992), Tanabe et al., Neuron 8:169 (1992), Miller et al., J. Neuroscience 15: 6103 (1995), Balazs, et al., J. Neurochemistry 69:151 (1997). The methodology described in these publications is incorporated herein by reference. Conveniently, the compounds of the invention can be studied by means of an assay (FLIPR) that measures the mobilization of intracellular calcium, [Ca^2+]i in cells expressing mGluR5 or another assay (IP3) that measures inositol phosphate turnover.
Cells expressing human mGluR5d as described in WO97/05252 are seeded at a density of 100,000 cells per well on collagen coated clear bottom 96-well plates with black sides and experiments are done 24 h following seeding. All assays are done in a buffer containing 127 mM NaCl, 5 mM KCl, 2 mM MgCl2, 0.7 mM NaH2PO4, 2 mM CaCl2, 0.422 mg/mL NaHCO3, 2.4 mg/mL HEPES, 1.8 mg/mL glucose and 1 mg/mL BSA Fraction IV (pH 7.4). Cell cultures in the 96-well plates are loaded for 60 minutes in the above mentioned buffer containing 4 μM of the acetoxymethyl ester form of the fluorescent calcium indicator fluo-3 (Molecular Probes, Eugene, Oreg.) in 0.01% pluronic acid (a proprietary, non-ionic surfactant polyol—CAS Number 9003-11-6). Following the loading period the fluo-3 buffer is removed and replaced with fresh assay buffer. FLIPR experiments are done using a laser setting of 0.800 W and a 0.4 second CCD camera shutter speed with excitation and emission wavelengths of 488 nm and 562 nm, respectively. Each experiment is initiated with 160 μl of buffer present in each well of the cell plate. A 40 μl addition from the antagonist plate was followed by a 50 μL addition from the agonist plate. A 30 minute interval separates the antagonist and agonist additions. The fluorescence signal is sampled 50 times at 1 second intervals followed by 3 samples at 5 second intervals immediately after each of the two additions. Responses are measured as the difference between the peak height of the response to agonist, less the background fluorescence within the sample period. IC50 determinations are made using a linear least squares fitting program.
For orientation: Calcium assays in cells follow changes in intracellular calcium, usually with a dye or a luminescent sensor.

Data set [1] can be described thus: Determination of brain to plasma ratio in rat. The class given is in vivo. The conditions noted are these: female Sprague Dawley rats, read-out: Brain/Plasma Ratio of compound in Rat. The protocol: Brain to plasma ratios are estimated in female Sprague Dawley rats. The compound is dissolved in water or another appropriate vehicle. For determination of brain to plasma ratio the compound is administrated as a subcutaneous, or an intravenous bolus injection, or an intravenous infusion, or an oral administration. At a predetermined time point after the administration a blood sample is taken with cardiac puncture. The rat is terminated by cutting the heart open, and the brain is immediately retained. The blood samples are collected in heparinized tubes and centrifuged within 30 minutes, in order to separate the plasma from the blood cells. The plasma is transferred to 96-well plates and stored at −20° C. until analysis. The brains are divided in half, and each half is placed in a pre-tarred tube and stored at −20° C. until analysis. Prior to the analysis, the brain samples are thawed and 3 mL/g brain tissue of distilled water is added to the tubes. The brain samples are sonicated in an ice bath until the samples are homogenized. Both brain and plasma samples are precipitated with acetonitrile. After centrifugation, the supernatant is diluted with 0.2% formic acid. Analysis is performed on a short reversed-phase HPLC column with rapid gradient elution and MSMS detection using a triple quadrupole instrument with electrospray ionisation and Selected Reaction Monitoring (SRM) acquisition. Liquid-liquid extraction may be used as an alternative sample clean-up. The samples are extracted, by shaking, to an organic solvent after addition of a suitable buffer. An aliquot of the organic layer is transferred to a new vial and evaporated to dryness under a stream of nitrogen. After reconstitution of the residuals the samples are ready for injection onto the HPLC column.

A further data set addresses HERG (Homo sapiens, UniProt Q12809). The data set can be described thus: HERG ionworks. In kind it is cell-based. (In general: Patch clamp records ionic current or voltage across a cell membrane.)
Data set [2] can be described thus: Determination of in vitro stability in human liver microsomes (CLint). In kind it is in vitro ADME. The conditions noted are these: pH 7.4, 0.5 mg/mL protein, 1.0 μmol/L compound, NADPH. The method, then:
Rat liver microsomes are prepared from Sprague-Dawley rats liver samples. Human liver microsomes are either prepared from human liver samples or acquired from BD Gentest. The compounds are incubated at 37° C. at a total microsome protein concentration of 0.5 mg/mL in a 0.1 mol/L potassium phosphate buffer at pH 7.4, in the presence of the cofactor, NADPH (1.0 mmol/L). The initial concentration of compound is 1.0 μmol/L. Samples are taken for analysis at 5 time points, 0, 7, 15, 20 and 30 minutes after the start of the incubation. The enzymatic activity in the collected sample is immediately stopped by adding a 3.5 times volume of acetonitrile. The concentration of compound remaining in each of the collected samples is determined by means of LC-MS. The elimination rate constant (k) of the mGluR5 inhibitor is calculated as the slope of the plot of In[mGluR5 inhibitor] against incubation time (minutes). The elimination rate constant is then used to calculate the half-life (T ½) of the mGluR5 inhibitor, which is subsequently used to calculate the intrinsic clearance (CLint) of the mGluR5 inhibitor in liver microsomes as: CLint.=(ln 2×incubation volume)/(T ½×protein concentration)=μl/min/mg
On the technique in general: Liver microsomes are a subcellular fraction often used to study metabolism.

Bounds are passed on as bounds.

T1 sequence (P41594 21-942 isoform P41594-3 limits assumed): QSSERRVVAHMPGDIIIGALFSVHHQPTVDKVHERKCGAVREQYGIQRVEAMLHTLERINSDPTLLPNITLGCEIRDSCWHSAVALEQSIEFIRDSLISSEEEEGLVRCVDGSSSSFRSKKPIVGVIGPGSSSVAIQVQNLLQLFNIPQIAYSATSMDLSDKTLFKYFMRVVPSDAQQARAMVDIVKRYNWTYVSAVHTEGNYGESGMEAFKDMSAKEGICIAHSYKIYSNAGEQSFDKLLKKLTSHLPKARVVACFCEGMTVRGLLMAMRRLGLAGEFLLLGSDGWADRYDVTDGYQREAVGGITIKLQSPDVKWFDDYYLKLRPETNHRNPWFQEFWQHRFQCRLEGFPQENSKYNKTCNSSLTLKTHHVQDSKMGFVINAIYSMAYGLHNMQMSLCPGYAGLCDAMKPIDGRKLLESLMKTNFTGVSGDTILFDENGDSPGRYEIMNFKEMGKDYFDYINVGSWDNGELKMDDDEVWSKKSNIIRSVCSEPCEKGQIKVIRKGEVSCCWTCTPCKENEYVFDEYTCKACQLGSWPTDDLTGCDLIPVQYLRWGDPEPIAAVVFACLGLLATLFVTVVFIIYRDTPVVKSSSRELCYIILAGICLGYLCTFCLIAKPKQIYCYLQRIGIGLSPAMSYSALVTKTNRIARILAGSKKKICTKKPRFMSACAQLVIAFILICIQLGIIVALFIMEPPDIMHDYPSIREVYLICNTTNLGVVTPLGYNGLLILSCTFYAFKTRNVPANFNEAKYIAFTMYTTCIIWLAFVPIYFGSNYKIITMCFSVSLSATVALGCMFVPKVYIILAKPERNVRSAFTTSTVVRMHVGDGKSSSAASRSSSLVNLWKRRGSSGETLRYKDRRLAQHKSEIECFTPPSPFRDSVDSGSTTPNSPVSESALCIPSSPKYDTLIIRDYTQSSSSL
Chain of HERG (Q12809 whole entry): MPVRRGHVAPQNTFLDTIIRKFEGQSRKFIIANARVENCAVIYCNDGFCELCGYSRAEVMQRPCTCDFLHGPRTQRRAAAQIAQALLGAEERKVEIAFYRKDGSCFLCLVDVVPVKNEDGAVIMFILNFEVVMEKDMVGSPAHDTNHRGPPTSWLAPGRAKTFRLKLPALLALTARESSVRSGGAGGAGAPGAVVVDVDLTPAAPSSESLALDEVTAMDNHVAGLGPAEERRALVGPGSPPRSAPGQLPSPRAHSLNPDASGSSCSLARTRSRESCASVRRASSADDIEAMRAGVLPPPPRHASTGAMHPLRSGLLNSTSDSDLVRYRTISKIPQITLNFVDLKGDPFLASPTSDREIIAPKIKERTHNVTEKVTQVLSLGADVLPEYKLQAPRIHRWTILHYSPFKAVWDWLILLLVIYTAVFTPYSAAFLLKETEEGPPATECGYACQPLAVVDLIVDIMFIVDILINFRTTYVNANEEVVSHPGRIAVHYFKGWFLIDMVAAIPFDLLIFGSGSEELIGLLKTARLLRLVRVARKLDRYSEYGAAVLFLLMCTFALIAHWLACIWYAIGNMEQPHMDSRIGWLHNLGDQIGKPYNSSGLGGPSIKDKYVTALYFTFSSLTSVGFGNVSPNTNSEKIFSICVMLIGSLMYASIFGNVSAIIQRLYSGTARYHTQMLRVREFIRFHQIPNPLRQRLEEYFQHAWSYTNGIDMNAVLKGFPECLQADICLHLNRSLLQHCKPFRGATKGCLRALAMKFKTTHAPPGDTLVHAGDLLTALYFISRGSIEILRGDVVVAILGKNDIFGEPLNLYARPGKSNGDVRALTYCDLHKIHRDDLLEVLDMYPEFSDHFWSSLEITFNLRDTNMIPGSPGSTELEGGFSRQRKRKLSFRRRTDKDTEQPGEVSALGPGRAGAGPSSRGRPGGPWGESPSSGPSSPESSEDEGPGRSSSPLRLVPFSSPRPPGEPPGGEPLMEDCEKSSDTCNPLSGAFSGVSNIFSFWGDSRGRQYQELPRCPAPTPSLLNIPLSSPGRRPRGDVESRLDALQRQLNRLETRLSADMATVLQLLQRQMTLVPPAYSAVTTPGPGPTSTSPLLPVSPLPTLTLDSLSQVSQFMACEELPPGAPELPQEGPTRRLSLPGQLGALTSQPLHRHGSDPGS

For `Cn1c(-c2ccn(C)c(=O)c2)nnc1N1CCC[C@@H]1c1nnn(-c2cccc(Cl)c2)n1` [Example 31.11, 4-(5-{(R)-2-[2-(3-Chloro-phenyl)-2H-tetrazol-5-yl]-pyrrolidin-1-yl}-4-methyl-4H-[1,2,4]triazol-3-yl)-1-methyl-1H-pyridin-2-one], at human mGluR5d, the IC50 was found to be 39 nM. In addition, the Kp in data set [1] was found to be 0.035. The same compound registered an HERG ionworks at HERG of 20 µM. Further, in data set [2], the microsomal CLint (as a rule, a measure of how fast metabolising enzymes remove a compound, apart from limits set by blood flow) at 1 μmol/L is below 12 µL/min/mg.
In the case of `Cc1cccc(-c2cc([C@H]3CCCN3c3nnc(-c4ccn(C)c(=O)c4)n3C)no2)c1` [Example 31.19, 1-Methyl-4-{4-methyl-5-[(R)-2-(5-m-tolylisoxazol-3-yl)pyrrolidin-1-yl]-4H-[1,2,4]triazol-3-yl}-1H-pyridin-2-one], the IC50 at human mGluR5d turned out to be 50 nM. The Kp in data set [1] was found to be 0.01. The HERG ionworks on HERG worked out at 24 µM. Besides, in data set [2], the microsomal CLint at 1 μmol/L is below 12 µL/min/mg.
The corresponding values for `Cn1c(-c2ccc(=O)n(C)c2)nnc1N1CCC[C@@H]1c1cc(-c2cccc(Cl)c2)on1` [Example 31.7, 5-(5-{(R)-2-[5-(3-Chloro-phenyl)-isoxazol-3-yl]-pyrrolidin-1-yl}-4-methyl-4H-[1,2,4]triazol-3-yl)-1-methyl-1H-pyridin-2-one] are 47 nM, 0.005, 23 µM and below 12 µL/min/mg.
The corresponding values for `Cn1c(-c2ccnnc2)nnc1N1CCC[C@@H]1c1cc(-c2cccc(Cl)c2)on1` [Example 31.8, 4-(5-{(R)-2-[5-(3-Chloro-phenyl)-isoxazol-3-yl]-pyrrolidin-1-yl}-4-methyl-4H-[1,2,4]triazol-3-yl)-pyridazine] are 25 nM, 0.11, 16 µM and below 12 µL/min/mg.
